Reference: patent US7550469B2, “Heterocyclic amide derivatives and their use as dopamine D3 receptor ligands” (Aventis Pharmaceuticals Inc., priority 2001, dated 2009)
Read-outs that look alike come from different tables or passages of the source.

Key:
[1] = target: T1, cloned human alpha-1A adrenergic receptors (α1a) (Homo sapiens, UniProt P35348); test: [3H]Prazosin binding to cloned human alpha-1A adrenergic receptors expressed in CHO cells; details: human α-1; 6-fluoro vs 6-trifluoromethyl benzo[b]thiophene pairs; read-out: halpha 1 Ki (nM) h = human
T1 construct: expressed in transfected cells; host or cells: CHO cells, G418-resistant clone, pcDNA3 vector; membrane fragments
T1 sequence (P35348 1-466): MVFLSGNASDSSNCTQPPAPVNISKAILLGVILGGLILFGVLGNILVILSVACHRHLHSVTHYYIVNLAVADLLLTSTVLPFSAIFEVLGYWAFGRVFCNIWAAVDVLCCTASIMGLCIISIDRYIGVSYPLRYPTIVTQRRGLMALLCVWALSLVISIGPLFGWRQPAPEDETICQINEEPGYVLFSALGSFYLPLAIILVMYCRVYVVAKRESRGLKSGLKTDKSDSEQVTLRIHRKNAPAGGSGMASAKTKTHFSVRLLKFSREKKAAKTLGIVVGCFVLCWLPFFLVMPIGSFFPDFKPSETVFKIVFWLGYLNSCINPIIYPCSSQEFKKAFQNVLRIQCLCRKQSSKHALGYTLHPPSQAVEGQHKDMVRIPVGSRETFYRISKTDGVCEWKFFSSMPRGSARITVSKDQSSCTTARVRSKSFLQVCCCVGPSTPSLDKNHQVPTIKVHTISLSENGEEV
Text: ^3H]PRAZOSIN BINDING TO CLONED HUMAN ALPHA-1A ADRENERGIC RECEPTORS (α1a) EXPRESSED IN CHINESE HAMSTER OVARY CELLS (CHO)
Purpose: This in vitro assay is designed as a screen to identify compounds displaying a affinity for the human α1a adrenoceptor subtype expressed in the membrane fragments of CHO cells. The assay measures the ability of the test compounds to displace [^3H] prazosin from α1a sites. • The identification of multiple vascular α1-addrenoceptors (α1a, α1b, α1d) in vitro has provided impetus to define the role(s) of these subtypes in cardiovascular regulation in vivo (Vargas and Gorman, 1995). […] Prazosin is a potent antagonist of the human α1a-adrenoceptor subtype, which has been cloned and is expressed in the membrane fragments of CHO cells. hα1a Receptor: The cloning of the human α1a cDNA was accomplished first by screening a human prostate cDNA library (Clontech), from which a portion of the coding region was obtained. This DNA fragment was then used to screen a human leukocyte genomic library (Clontech), and the rest of the coding sequence was obtained. Later these two fragments were spliced together. The entire coding sequence was then fully sequenced including matching PCR sequence with original genomic coding sequence, thus ensuring splice sites were joined correctly (Schwinn et al., 1995). Once sequenced, the gene was subcloned into the expression vector pcDNA3 (Invitrogen). Plasmid DNA was then used for transfection into CHO cells and G418 resistant clones were isolated. A clone expressing high levels of the hα1a receptor (as determined by mRNA and receptor binding data) was chosen and pharmacologically characterized. Culture Media: Media Ingredients for Adherent α1a expressing CHO Culture: • A. HAM's F-12 (Cellgro) • B. 10% 0.2 micron filtered Fetal Bovine Serum (FBS)(Cellgro) • C. 1% 0.2 micron filtered Penicillin-Streptomycin (Celigro) • D. G418 0.2 micron filtered (Geneticin 400 μg/ml)(Cellgro) • Cells are cultured using established methods and procedures in either 150×25 mm culture plates (scale up to 100 plates) or a combination of these plates and 70 roller bottles. One culturing/harvest cycle typically requires 2 weeks and yields between 100-400 mg protein. Plates or bottles are incubated at 37° C.+5% CO2. Storage: Cells are harvested by mechanical scraping, washed using PBS, collected in 250 ml Corning polypropylene centrifuge tubes, spun down (1500RPM) and resuspended in dH2O 10% DMSO (final volume per harvest is approximately 50 ml). Protein determination is made using the Biorad DC Assay Kit. Finally, the appropriate volume is aliquoted into a 2 ml Corning Cryovial (10 mg/1-1.5 ml) which is stored at −80° C. Current Lot Data:
Assay Requirement: 0.5 cryovials per 96 well plate (assay volume=200 μl/well) [^3H]-Ligand: [7-methoxy-^3H]-Prazosin: 1.0 nM (NEN, NET-823) • 70-87 Ci/mmol Materials: Phentolamine mesylate (Research Biochemicals Int. #P-131) • 96 well flat bottom plates (Beckman) • Unifilter GF/B Plate (Packard) • Polyethylenimine (Sigma #P-3134) • TomTec or Packard Filtermate 196 Cell Harvesters • Packard TopCount Scintillation Counter Buffers: A: 50 mM Tris HCl; 0.1% ascorbate, pH 7.7 (incubation buffer) • B: 50 mM Tris HCl; pH 7.7 (wash buffer) Procedure: Assay additions are as follows (in the order indicated): • Total Binding=50 μl buffer A+50 μl [^3H]prazosin+100 μl membrane • Nonsp. Bd.=50 μl 10 μM phentolamine+50 μl [^3H]prazosin+100 μl membrane • Test Cpd.=50 μl compound+50 μl [^3H]prazosin+100 μl membrane • Compounds to be evaluated are weighed out to yield a 10 mM stock solution in DMSO in a 24 well polystyrene plate. This is diluted to a 0.5 mM stock in dH2O. Serial dilutions in Buffer A are made from which 50 μl additions to the plate are made in duplicate in order to achieve the final concentrations desired. Typically, one 96 well plate is used to evaluate 11 compounds at 4 concentrations (10^−6-10^−9 M) in duplicate. […]

[2] = target: Alpha-1 adrenergic receptors from rat brain cortex; test: [3H]Prazosin binding to alpha-1 adrenergic receptors from rat brain cortex (Protocol 4)
Text: [^3H]Prazosin Binding to Alpha-1 Adrenergic Receptors from Rat Brain Cortex
Objective: This in vitro assay is designed as a screen to identify compounds displaying a affinity for the a, adrenoceptor subtype in membranes from rat cortex. It measures the ability of the test compounds to displace [^3H]prazosin from the α1 sites.
Membrane Preparation: Rat brain tissue can be obtained from either fresh (male Wistar rats; 200-250 g) or frozen (male Sprague-Dawley 200-250 g from Harlan; cat. #BT-403) stocks. The cortex is dissected, homogenized in 50 vol (wet weight) ice-cold 50 mM Tris buffer (pH 7.7 at 25° C.). The homogenate is centrifuged at 48,000 g for 10 min, the pellet is resuspended in 50 mM Tris buffer and centrifuged a second time. The second pellet (P2) is resuspended to yield a concentration of 115 mg wet weight per 10 ml. […] Membranes should be mixed just before addition to ensure an even suspension. […] This is diluted to a 0.5 mM stock in dH2O. Serial dilutions in Buffer A are made from which 50 μl additions to the plate are made in duplicate in order to achieve the final concentrations desired. Typically, one 96 well plate is used to evaluate 11 compounds at 4 concentrations (10^−6-10^−9 M) in duplicate. Total binding and nonspecific binding are determined in quadruplicate. Usually one standard is run with each assay. • [^3H]Prazosin is made up in Buffer A such that when 50 μl are added per well the final concentration is […] in a final assay volume of 200 μl. The final concentration should be verified by running a sample in a scintillation counter prior to adding the [^3H]prazosin to the 96 well plate. Note: The radioactivity should be prepared just before the additions are made so that it is not allowed to sit on the bench for very long. • Packard GF/B Plate Pretreatment: The filter plates are presoaked for at least 30 min in ice cold Buffer B containing 0.05% polyethyleneimine (200 μl/200 ml) to maximize filtration efficiency and minimize filter blank binding. • Incubation & Filtration: Once buffer, compounds, [^3H]prazosin and membrane have been added (and mixed), the 96 well plates are incubated for 40 min at 37° C. and spaced 3-5 min apart. At 40 min, the plates are filtered using a Tomtec Automated Cell Harvester. Filtration is immediately followed by washes of ice cold Buffer B (total vol. ˜7 ml). • Drying and Counting: Each filter plate is dried under a heat lamp for 15 min. The back of the plate is sealed and 40 μl of Packard microscint fluid are added per well. Using Packard film, each plate is heat sealed prior to being counted in a Packard Topcount Scintillation counter. A program has been written that counts each plate twice sending DPM, CPM and TSIS data to disk and printer. • Analysis of Results: Raw DPM and CPM data are captured on disk and are imported into one of several software packages (Graphpad Prism Ver 2.0, Excel) residing on the LAN. Specific binding is defined as the difference between total binding and the binding in the presence of 10 μM phentolamine. Total binding is less than 10% of the total added ligand. Software using one-site competition curve analysis is employed in the calculation of IC50 and KI (Cheng-Prusoff equation, 1973). The top and bottom of the non-linear regression are held constant at 0% and 100% inhibition. The percent inhibition at each drug concentration is the mean of duplicate determinations.

[3] = r = rat, piperazines (n = 1) vs homopiperazines (n = 2), read-out: r-α1 Ki
[4] = rat α-1, read-out: rat alpha 1 Ki

| Compound | Ki [2, 3] | Ki [2, 4] | further results |
| --- | --- | --- | --- |
| Cl.c1cc2onc(C3CCNCC3)c2s1 |  |  | melting point: 263 to 265 °C |
| O=C(NCCCCN1CCN(c2csc3cc(F)ccc23)CC1)c1ccc(-c2ccccc2)cc1 [813585A] |  |  | Ki [1]: 5.67 nM |
| O=C(NCCCCN1CCN(c2csc3cc(F)ccc23)CC1)c1cc2ccccc2s1 [compound 811614] | 5 nM | 5 nM |  |
| COc1ccccc1C(=O)NCCCCN1CCN(c2csc3cc(F)ccc23)CC1 [compound 813368] | 4.1 nM | 4.1 nM |  |
| O=C(NCCCCN1CCN(c2csc3cc(F)ccc23)CC1)c1ccco1 [compound 813371] | 1.1 nM | 1.1 nM |  |
| O=C(NCCCCN1CCN(c2csc3cc(F)ccc23)CC1)c1ccc2ccccc2c1 [compound 813372] | 40.6 nM |  |  |
| O=C(NCCCCN1CCN(c2csc3cc(F)ccc23)CC1)c1cc2ccccc2[nH]1 [compound 813373] | 25.2 nM |  |  |
| O=C(NCCCCN1CCN(c2csc3cc(F)ccc23)CC1)c1ccc(C(F)(F)F)cc1 [compound 813374] | 32.4 nM | 32.4 nM |  |
| O=C(NCCCCN1CCN(c2csc3cc(F)ccc23)CC1)c1ccc2c(c1)OCO2 [compound 813375] |  | 2.6 nM |  |
| CCCCOc1ccc(C(=O)NCCCCN2CCN(c3csc4cc(F)ccc34)CC2)cc1 [compound 813376] |  | 10.9 nM |  |
| O=C(NCCCCN1CCN(c2csc3cc(F)ccc23)CC1)c1sc2ccccc2c1Cl [compound 813377] |  | 15.4 nM |  |
| COc1cccc(C(=O)NCCCCN2CCN(c3csc4cc(F)ccc34)CC2)c1 [compound 813380] | 21.9 nM |  |  |
| O=C(NCCCCN1CCN(c2csc3cc(F)ccc23)CC1)c1ccc(Br)cc1 [compound 813381] |  | 32.3 nM |  |

Further lines, with some results ahead:

| Ki [2, 3] | Ki [2, 4] | Compound | further results |
| --- | --- | --- | --- |
|  | 7 nM | O=C(NCCCCN1CCN(c2csc3cc(F)ccc23)CC1)c1ccc(Cl)cc1 [compound 813754] |  |
|  | 3 nM | CCOc1ccc(C(=O)NCCCCN2CCN(c3csc4cc(F)ccc34)CC2)cc1 [compound 813914] |  |
|  | 4 nM | O=C(NCCCCN1CCN(c2csc3cc(F)ccc23)CC1)c1c(F)cccc1F [compound 813918] |  |
|  | 2 nM | O=C(NCCCCN1CCN(c2csc3cc(F)ccc23)CC1)c1ccc(F)cc1F [compound 813920] |  |
| 5 nM |  | O=C(NCCCCN1CCN(c2csc3cc(F)ccc23)CC1)c1ccc2[nH]ccc2c1 [compound 814018] |  |
| 12 nM |  | O=C(NCCCCN1CCN(c2csc3cc(F)ccc23)CC1)c1c[nH]c2ccccc12 [compound 814026] |  |
